From patent US20040266742A1, “Combination therapy of an sodm and a corticosteroid for prevention and/or treatment of inflammatory disease” (priority 2001, published 2004)
Entries after “also recorded” stand apart in the source; their conditions may differ.

What was measured:
[1] = tested on: carrageenan-induced paw edema; test: Carrageenan-induced paw edema in rats; format: in vivo, sprague dawley rats
Description: Dexamethasone was given by lavage one hour before carrageenan. […] (1 mg/kg) was given intravenously 15 minutes before carrageenan. Male sprague dawley rats weighing between 200 and 210 g were used. Paw edema was monitored for 6 hours. Results express delta change from basal. Each number is the mean+s.e.m. for n=4 rats per group.

[2] = relative potency; cited from earlier work
[3] = relative potency; cited from earlier work; remark: listed apart in the source
[4] = cited from earlier work
COX-2 = COX-2 immunostaining in paw/joint of collagen-induced arthritis rats; format: in vivo, Lewis rats; conditions: day 35; low doses alone: DEX 0.01 mg/kg or M40403 2 mg/kg
Description: (§1) Immunohistochemical Localization of Nitrotyrosine, PARS, COX-2 and iNOS At day 35, the joints organs were then trimmed, placed in decalcifying solution for 24 hours and 8 μm sections were prepared from paraffin embedded tissues. After deparaffinization, endogenous peroxidase was quenched with 0.3% H2O2 in 60% methanol for 30 minutes. The sections were permeabilized with 0.1% Triton X-100 in PBS for 20 minutes. Non-specific adsorption was minimized by incubating the section in 2% normal goat serum in phosphate buffered saline for 20 minutes. Endogenous biotin or avidin binding sites were blocked by sequential incubation for 15 minutes with avidin and biotin. Sections were incubated overnight with 1) anti-rabbit polyclonal antibody directed at iNOS (1:1000 in PBS, v/v) (DBA, Milan, Italy) or 2) with anti-COX-2 goat policlonal antibody (1:500 in PBS, v/v) or 3) with anti-nitrotyrosine rabbit policlonal antibody (1:1000 in PBS, v/v) or 4) with anti-poly (ADP-Ribose) goat policlonal antibody rat (1:500 in PBS, v/v). Controls included buffer alone or non-specific purified rabbit IgG. Specific labelling was detected with a biotin-conjugated goat anti-rabbit IgG (for nitrotyrosine and iNOS) or with a biotin-conjugated […] and avidin-biotin peroxidase complex. […]

[5] = Body weight gain in collagen-induced arthritis rats; format: in vivo, Lewis rats; conditions: day 25 to 35; low doses alone: DEX 0.01 mg/kg or M40403 2 mg/kg
Description: Animals were randomly divided into six groups (n=10 for each group) as follows: […]

nitrotyrosine = test: Nitrotyrosine immunostaining in paw/joint of collagen-induced arthritis rats; format: in vivo, Lewis rats; conditions: day 35; low doses alone: DEX 0.01 mg/kg or M40403 2 mg/kg
Description: as §1

PARS = PARS immunostaining in paw/joint of collagen-induced arthritis rats; format: in vivo, Lewis rats; conditions: day 35; low doses alone: DEX 0.01 mg/kg or M40403 2 mg/kg
Description: as §1

iNOS = iNOS immunostaining in paw/joint of collagen-induced arthritis rats; format: in vivo, Lewis rats; conditions: day 35; low doses alone: DEX 0.01 mg/kg or M40403 2 mg/kg
Description: as §1

5,10,15,20-tetrakis (2,4,6-trimethyl-3,5-disulfonatophenyl)-porphyrinato iron (III) [FeTMPS]
Paw edema, delta change from basal ([1]; FeTMPS 1 mpk intravenously 15 minutes before carrageenan, 0 h post carrageenan): 0
Paw edema, delta change from basal ([1]; FeTMPS 1 mpk, 1 h post carrageenan): 0.6 ± 0.02
Paw edema, delta change from basal ([1]; FeTMPS 1 mpk, 2 h post carrageenan): 0.9 ± 0.05
Paw edema, delta change from basal ([1]; FeTMPS 1 mpk, 3 h post carrageenan): 1.1 ± 0.01
Paw edema, delta change from basal ([1]; FeTMPS 1 mpk, 4 h post carrageenan): 1.2 ± 0.02
Paw edema, delta change from basal ([1]; FeTMPS 1 mpk, 5 h post carrageenan): 1 ± 0.03
Paw edema, delta change from basal ([1]; FeTMPS 1 mpk, 6 h post carrageenan): 1.3 ± 0.02

C[C@H]1C[C@@H]2[C@H]([C@@H](O)C[C@@]3(C)[C@H]2CC[C@]3(O)C(=O)CO)[C@@]2(C)C=CC(=O)C=C12 [6a-Methyl-prednisolone]
Anti-inflammatory Potency [2]: 5
Na+-retaining Potency [3]: 0.5
Duration (T½, Hours) [4]: 12 to 36 h

C[C@]12CCC(=O)C=C1CC[C@@H]1[C@@H]2[C@@H](O)C[C@@]2(C)[C@H]1CC[C@]2(O)C(=O)CO [Cortisol]
Anti-inflammatory Potency [2]: 1
Na+-retaining Potency [3]: 1
Duration (T½, Hours) [4]: 8 to 12 h

C[C@]12CCC(=O)C=C1CC[C@@H]1[C@@H]2C(=O)C[C@@]2(C)[C@H]1CC[C@]2(O)C(=O)CO [Cortisone]
Anti-inflammatory Potency [2]: 0.8
Na+-retaining Potency [3]: 0.8

C[C@]12CCC(=O)C=C1CC[C@H]1[C@@H]3CC[C@](O)(C(=O)CO)[C@@]3(C)C[C@H](O)[C@@]12F [Fludrocortisone]
Duration (T½, Hours) [4]: 8 to 12 h

[Cl-].[Cl-].[Mn+2].c1cc2nc(c1)CN[C@@H]1CCCC[C@H]1NCCN[C@@H]1CCCC[C@H]1NC2 [M40403]
COX-2 immunostaining in joint (COX-2): had no effect on iNOS or COX-2 staining
Body weight gain [5]: gained weight in a manner that was similar to CIA rats; also recorded: gained significantly less weight than the normal rats
Nitrotyrosine immunostaining in joint (nitrotyrosine): No significant protective effect
PARS immunostaining in joint (PARS): No significant protective effect
iNOS immunostaining in joint (iNOS): had no effect on iNOS or COX-2 staining

C[C@]12C=CC(=O)C=C1CC[C@@H]1[C@@H]2[C@@H](O)C[C@@]2(C)[C@H]1CC[C@]2(O)C(=O)CO [Prednisolone]
Anti-inflammatory Potency [2]: 4
Na+-retaining Potency [3]: 0.8
Duration (T½, Hours) [4]: 12 to 36 h

C[C@]12C=CC(=O)C=C1CC[C@@H]1[C@@H]2C(=O)C[C@@]2(C)[C@H]1CC[C@]2(O)C(=O)CO [Prednisone]
Duration (T½, Hours) [4]: 12 to 36 h

C[C@]12C=CC(=O)C=C1CC[C@H]1[C@@H]3C[C@@H](O)[C@](O)(C(=O)CO)[C@@]3(C)C[C@H](O)[C@@]12F [Triamcinolone]
Anti-inflammatory Potency [2]: 5
Na+-retaining Potency [3]: 0
Duration (T½, Hours) [4]: 12 to 36 h
